From patent publication US12077503B2, “Substituted cyclic amides and their use as herbicides” (FMC CORPORATION, priority 2015, dated 2024)

Experiments:
Assay type in all cases: in vivo
[1] = tested on: ivy-leaved morning glory (Ipomoea hederacea); assay: Test G Post-Emergence Protocol; settings: Ipomoea, post-emergence, 312 h
In short: (§1)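 Foliar application was made 8 days after sowing, using an aqueous spray of the active in acetone/water (50:50) with 0.5% Tween 20, at doses of 15.625, 62.5 or 250 g/ha. Injury was assessed 13 days later, where 100 meant the plant was fully damaged.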

[2] = tested on: corn (Zea mays); assay: Test G Post-Emergence Protocol; settings: Zea mays, post-emergence, 312 h
In short: as §1

[3] = tested on: barnyardgrass (Echinochloa crus-galli); assay: Test G Post-Emergence Protocol; settings: Echinochloa crus-galli, post-emergence, 312 h
In short: as §1

[4] = tested on: redroot pigweed (Amaranthus retroflexus); assay: Test G Post-Emergence Protocol; settings: Amaranthus retroflexus, post-emergence, 312 h
In short: as §1

[5] = tested on: velvetleaf (Abutilon theophrasti); assay: Test G Post-Emergence Protocol; settings: Abutilon theophrasti, post-emergence, 312 h
In short: as §1

[6] = tested on: giant foxtail (Setaria faberi); assay: Test G Post-Emergence Protocol; settings: Setaria faberi, post-emergence, 312 h
In short: as §1

[7] = tested on: ivy-leaved morning glory (Ipomoea hederacea); assay: Test G Pre-Emergence Protocol; settings: Ipomoea, pre-emergence, 312 h, evaluated after 13 days
In short: (§2)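 Scores are visual damage ratings from 0 (no damage) to 100 (total plant kill), taken 13 days after treatment. Compound was sprayed one day post-sowing at 15.625, 62.5 or 250 g/ha in 50:50 acetone/water with 0.5% Tween 20.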

[8] = tested on: corn (Zea mays); assay: Test G Pre-Emergence Protocol; settings: Zea mays, pre-emergence, 312 h, evaluated after 13 days
In short: as §2

[9] = tested on: barnyardgrass (Echinochloa crus-galli); assay: Test G Pre-Emergence Protocol; settings: Echinochloa crus-galli, pre-emergence, 312 h, evaluated after 13 days
In short: as §2

[10] = tested on: redroot pigweed (Amaranthus retroflexus); assay: Test G Pre-Emergence Protocol; settings: Amaranthus retroflexus, pre-emergence, 312 h, evaluated after 13 days
In short: as §2

[11] = tested on: velvetleaf (Abutilon theophrasti); assay: Test G Pre-Emergence Protocol; settings: Abutilon theophrasti, pre-emergence, 312 h, evaluated after 13 days
In short: as §2

[12] = tested on: giant foxtail (Setaria faberi); assay: Test G Pre-Emergence Protocol; settings: Setaria faberi, pre-emergence, 312 h, evaluated after 13 days
In short: as §2

CCOC(=O)c1cccc([C@H]2CN(C)C(=O)[C@@H]2C(=O)Nc2ccccc2F)c1 (racemic) [Compound 1438]
pest or weed control at 15.625 g/ha ([1]; 15.625 g ai/ha, evaluated after 13 days (100=total damage to plant; 0=no damage to plant), read-out: Morningglory, Ivy-leaved damage rating): 0% | pest or weed control at 62.5 g/ha ([1]; 62.5 g ai/ha, evaluated after 13 days, read-out: Morningglory, Ivy-leaved damage rating (100=total damage to plant; 0=no damage to plant)): 0% | pest or weed control at 250 g/ha ([1]; 250 g ai/ha, evaluated after 13 days, read-out: damage to plant, Morningglory, Ivy-leaved (100=total damage to plant; 0=no damage to plant)): 0% | plant injury at 15.625 g/ha ([2]; 15.625 g ai/ha, evaluated after 13 days (100=total damage to plant; 0=no damage to plant), read-out: Corn damage rating): 0% | plant injury at 62.5 g/ha ([2]; 62.5 g ai/ha, evaluated after 13 days, read-out: Corn damage rating (100=total damage to plant; 0=no damage to plant)): 0% | plant injury at 250 g/ha ([2]; 250 g ai/ha, evaluated after 13 days, read-out: damage to plant, Corn (100=total damage to plant; 0=no damage to plant)): 0% | pest or weed control at 15.625 g/ha ([3]; 15.625 g ai/ha, evaluated after 13 days (100=total damage to plant; 0=no damage to plant), read-out: Barnyardgrass damage rating): 0% | pest or weed control at 62.5 g/ha ([3]; 62.5 g ai/ha, evaluated after 13 days, read-out: Barnyardgrass damage rating (100=total damage to plant; 0=no damage to plant)): 0% | pest or weed control at 250 g/ha ([3]; 250 g ai/ha, evaluated after 13 days, read-out: damage to plant, Barnyardgrass (100=total damage to plant; 0=no damage to plant)): 0% | pest or weed control at 15.625 g/ha ([4]; 15.625 g ai/ha, evaluated after 13 days (100=total damage to plant; 0=no damage to plant), read-out: Pigweed, Redroot damage rating): 0% | pest or weed control at 62.5 g/ha ([4]; 62.5 g ai/ha, evaluated after 13 days, read-out: Pigweed, Redroot damage rating (100=total damage to plant; 0=no damage to plant)): 0% | pest or weed control at 250 g/ha ([4]; 250 g ai/ha, evaluated after 13 days, read-out: damage to plant, Pigweed, Redroot (100=total damage to plant; 0=no damage to plant)): 10% | pest or weed control at 15.625 g/ha ([5]; 15.625 g ai/ha, evaluated after 13 days (100=total damage to plant; 0=no damage to plant), read-out: Velvetleaf damage rating): 0% | pest or weed control at 62.5 g/ha ([5]; 62.5 g ai/ha, evaluated after 13 days, read-out: Velvetleaf damage rating (100=total damage to plant; 0=no damage to plant)): 0% | pest or weed control at 250 g/ha ([5]; 250 g ai/ha, evaluated after 13 days, read-out: damage to plant, Velvetleaf (100=total damage to plant; 0=no damage to plant)): 0% | pest or weed control at 15.625 g/ha ([6]; 15.625 g ai/ha, evaluated after 13 days (100=total damage to plant; 0=no damage to plant), read-out: Foxtail, Giant damage rating): 0% | pest or weed control at 62.5 g/ha ([6]; 62.5 g ai/ha, evaluated after 13 days, read-out: Foxtail, Giant damage rating (100=total damage to plant; 0=no damage to plant)): 0% | pest or weed control at 250 g/ha ([6]; 250 g ai/ha, evaluated after 13 days, read-out: damage to plant, Foxtail, Giant (100=total damage to plant; 0=no damage to plant)): 0% | pest or weed control at 15.625 g/ha ([7]; 15.625 g ai/ha, read-out: Morning-glory, Ivy-leaved damage rating (100=total damage to plant; 0=no damage to plant)): 0% | pest or weed control at 62.5 g/ha ([7]; 62.5 g ai/ha, 100=total damage to plant, 0=no damage to plant, read-out: plant damage rating, Morningglory, Ivy-leaved): 0% | pest or weed control at 250 g/ha ([7]; 250 g ai/ha, read-out: Morningglory, Ivy-leaved damage rating (100=total damage to plant; 0=no damage to plant)): 0% | plant injury at 15.625 g/ha ([8]; 15.625 g ai/ha, read-out: Corn damage rating (100=total damage to plant; 0=no damage to plant)): 0% | plant injury at 62.5 g/ha ([8]; 62.5 g ai/ha, 100=total damage to plant, 0=no damage to plant, read-out: plant damage rating, Corn): 0% | plant injury at 250 g/ha ([8]; 250 g ai/ha, read-out: Corn damage rating (100=total damage to plant; 0=no damage to plant)): 0% | pest or weed control at 15.625 g/ha ([9]; 15.625 g ai/ha, read-out: Barnyard grass damage rating (100=total damage to plant; 0=no damage to plant)): 0% | pest or weed control at 62.5 g/ha ([9]; 62.5 g ai/ha, 100=total damage to plant, 0=no damage to plant, read-out: plant damage rating, Barnyardgrass): 0% | pest or weed control at 250 g/ha ([9]; 250 g ai/ha, read-out: Barnyardgrass damage rating (100=total damage to plant; 0=no damage to plant)): 0% | pest or weed control at 15.625 g/ha ([10]; 15.625 g ai/ha, read-out: Pigweed, Redroot damage rating (100=total damage to plant; 0=no damage to plant)): 0% | pest or weed control at 62.5 g/ha ([10]; 62.5 g ai/ha, 100=total damage to plant, 0=no damage to plant, read-out: plant damage rating, Pigweed, Redroot): 0% | pest or weed control at 250 g/ha ([10]; 250 g ai/ha, read-out: Pigweed, Redroot damage rating (100=total damage to plant; 0=no damage to plant)): 0% | pest or weed control at 15.625 g/ha ([11]; 15.625 g ai/ha, read-out: Velvetleaf damage rating (100=total damage to plant; 0=no damage to plant)): 0% | pest or weed control at 62.5 g/ha ([11]; 62.5 g ai/ha, 100=total damage to plant, 0=no damage to plant, read-out: plant damage rating, Velvetleaf): 0% | pest or weed control at 250 g/ha ([11]; 250 g ai/ha, read-out: Velvetleaf damage rating (100=total damage to plant; 0=no damage to plant)): 0% | pest or weed control at 15.625 g/ha ([12]; 15.625 g ai/ha, read-out: Foxtail, Giant damage rating (100=total damage to plant; 0=no damage to plant)): 0% | pest or weed control at 62.5 g/ha ([12]; 62.5 g ai/ha, 100=total damage to plant, 0=no damage to plant, read-out: plant damage rating, Foxtail, Giant): 0% | pest or weed control at 250 g/ha ([12]; 250 g ai/ha, read-out: Foxtail, Giant damage rating (100=total damage to plant; 0=no damage to plant)): 20%
